In data set [1] the target is T1, Human MRP4 (Homo sapiens, UniProt O15439).
T1 sequence (O15439 1-1325): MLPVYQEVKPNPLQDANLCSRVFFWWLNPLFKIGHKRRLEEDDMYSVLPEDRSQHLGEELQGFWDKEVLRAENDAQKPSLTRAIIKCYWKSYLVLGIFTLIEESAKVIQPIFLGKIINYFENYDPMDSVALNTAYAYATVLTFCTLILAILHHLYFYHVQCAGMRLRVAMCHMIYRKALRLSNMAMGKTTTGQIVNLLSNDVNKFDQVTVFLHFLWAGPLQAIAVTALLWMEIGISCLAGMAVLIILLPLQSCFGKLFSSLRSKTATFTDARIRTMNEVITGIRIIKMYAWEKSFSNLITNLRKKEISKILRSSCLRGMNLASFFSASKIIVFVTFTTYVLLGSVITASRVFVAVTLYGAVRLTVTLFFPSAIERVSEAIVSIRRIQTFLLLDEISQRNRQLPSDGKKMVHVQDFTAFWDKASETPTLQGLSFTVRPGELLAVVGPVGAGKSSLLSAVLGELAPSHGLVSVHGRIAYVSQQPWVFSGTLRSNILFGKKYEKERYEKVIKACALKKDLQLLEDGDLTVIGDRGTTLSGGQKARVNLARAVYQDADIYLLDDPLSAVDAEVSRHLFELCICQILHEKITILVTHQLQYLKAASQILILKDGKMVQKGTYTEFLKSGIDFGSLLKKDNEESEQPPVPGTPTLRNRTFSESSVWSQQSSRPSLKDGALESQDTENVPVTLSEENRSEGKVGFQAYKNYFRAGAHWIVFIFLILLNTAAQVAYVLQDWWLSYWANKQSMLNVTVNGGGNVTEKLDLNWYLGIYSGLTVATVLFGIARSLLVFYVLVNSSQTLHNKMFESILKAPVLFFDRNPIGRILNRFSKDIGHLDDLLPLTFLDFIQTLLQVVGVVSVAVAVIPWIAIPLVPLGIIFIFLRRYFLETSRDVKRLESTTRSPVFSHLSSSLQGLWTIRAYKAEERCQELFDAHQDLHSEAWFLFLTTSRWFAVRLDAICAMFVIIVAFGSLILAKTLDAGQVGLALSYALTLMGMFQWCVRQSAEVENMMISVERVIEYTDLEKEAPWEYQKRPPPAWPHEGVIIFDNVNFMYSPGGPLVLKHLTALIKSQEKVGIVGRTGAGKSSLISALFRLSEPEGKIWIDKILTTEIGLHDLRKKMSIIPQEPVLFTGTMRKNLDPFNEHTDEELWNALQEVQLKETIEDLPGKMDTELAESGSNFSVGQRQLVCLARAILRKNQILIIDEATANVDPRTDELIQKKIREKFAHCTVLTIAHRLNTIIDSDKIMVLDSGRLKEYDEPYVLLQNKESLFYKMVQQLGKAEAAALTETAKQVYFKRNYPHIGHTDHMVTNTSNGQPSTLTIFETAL
The data set can be described thus: Vesicular uptake assay, MRP4 membrane vesicles.

The target of data set [2] is T2, human OAT3 (Homo sapiens, UniProt Q8TCC7).
T2 sequence (Q8TCC7 1-542): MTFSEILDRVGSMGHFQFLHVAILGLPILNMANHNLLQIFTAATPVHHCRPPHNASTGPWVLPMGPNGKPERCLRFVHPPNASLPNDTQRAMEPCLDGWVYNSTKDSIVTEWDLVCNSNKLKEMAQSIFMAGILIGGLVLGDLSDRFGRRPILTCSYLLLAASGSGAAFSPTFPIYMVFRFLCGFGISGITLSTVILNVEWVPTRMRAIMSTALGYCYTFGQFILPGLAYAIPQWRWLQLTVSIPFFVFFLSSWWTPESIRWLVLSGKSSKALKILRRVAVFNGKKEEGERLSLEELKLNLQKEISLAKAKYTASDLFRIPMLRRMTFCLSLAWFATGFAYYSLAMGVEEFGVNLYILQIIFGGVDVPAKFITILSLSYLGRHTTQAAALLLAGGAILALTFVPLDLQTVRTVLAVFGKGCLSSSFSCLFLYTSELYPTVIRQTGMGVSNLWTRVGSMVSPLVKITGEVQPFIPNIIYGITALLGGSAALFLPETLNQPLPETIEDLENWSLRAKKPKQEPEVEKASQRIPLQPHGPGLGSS
The data set can be described thus: 14C-NAC uptake in HEK-OAT3 cells.

The test system of data set [3] is HEK-EV cells. Nature of the data set: 14C-NAC uptake in HEK-empty vector control cells. Type of data set: in vitro ADME, human. Conditions: 200 μM probenecid, 25 min, n = 3.
The conditions of data set [4]: mice, cited from earlier work.
The conditions of data set [5]: ref Giustarini et al., 2012; cited from earlier work.
Data set [6] has as its target Human MRP1 (Homo sapiens, UniProt P33527). The data set can be described thus: Vesicular uptake assay, MRP1 membrane vesicles.
For data set [7] the following is noted: ref Borgstrom et al., 1986; cited from earlier work.
Data set [8] is described as follows: NAC plasma pharmacokinetics with or without probenecid, intraperitoneal. Conditions: juvenile rats. The class given is in vivo, Sprague-Dawley rats.
The format of data set [9] is in vivo, Sprague-Dawley rats.
The target of data set [10] is T3, human OAT1 (Homo sapiens, UniProt Q4U2R8).
T3 sequence (Q4U2R8 1-563): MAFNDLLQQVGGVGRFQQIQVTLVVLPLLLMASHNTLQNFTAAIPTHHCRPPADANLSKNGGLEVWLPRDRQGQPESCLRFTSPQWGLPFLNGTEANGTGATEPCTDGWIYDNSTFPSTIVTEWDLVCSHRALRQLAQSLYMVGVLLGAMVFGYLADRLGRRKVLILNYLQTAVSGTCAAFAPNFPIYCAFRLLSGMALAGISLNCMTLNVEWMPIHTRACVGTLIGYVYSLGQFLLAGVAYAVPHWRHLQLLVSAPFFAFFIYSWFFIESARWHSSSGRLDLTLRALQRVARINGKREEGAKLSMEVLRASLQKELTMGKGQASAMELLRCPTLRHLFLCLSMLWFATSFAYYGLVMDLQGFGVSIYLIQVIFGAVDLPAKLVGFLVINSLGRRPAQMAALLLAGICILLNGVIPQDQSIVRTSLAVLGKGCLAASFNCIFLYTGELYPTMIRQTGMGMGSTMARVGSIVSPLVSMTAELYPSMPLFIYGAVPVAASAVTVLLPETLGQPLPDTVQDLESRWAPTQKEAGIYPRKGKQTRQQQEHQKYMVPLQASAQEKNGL

For data set [11] the following is noted: given into the carotid artery, rats; ref Neuwelt et al., 2001; cited from earlier work.
[12] abbreviates: OAT3-overexpressing cells, 25 μM NAC.
Where [13] appears, read: in vitro uptake and inhibition experiments.

Each structure is given as a SMILES string. Entries after “also recorded” stand apart in the source; their conditions may differ. Like-named read-outs stand apart in the source and are kept apart here.

Sequence of Human MRP1 (P33527 whole entry): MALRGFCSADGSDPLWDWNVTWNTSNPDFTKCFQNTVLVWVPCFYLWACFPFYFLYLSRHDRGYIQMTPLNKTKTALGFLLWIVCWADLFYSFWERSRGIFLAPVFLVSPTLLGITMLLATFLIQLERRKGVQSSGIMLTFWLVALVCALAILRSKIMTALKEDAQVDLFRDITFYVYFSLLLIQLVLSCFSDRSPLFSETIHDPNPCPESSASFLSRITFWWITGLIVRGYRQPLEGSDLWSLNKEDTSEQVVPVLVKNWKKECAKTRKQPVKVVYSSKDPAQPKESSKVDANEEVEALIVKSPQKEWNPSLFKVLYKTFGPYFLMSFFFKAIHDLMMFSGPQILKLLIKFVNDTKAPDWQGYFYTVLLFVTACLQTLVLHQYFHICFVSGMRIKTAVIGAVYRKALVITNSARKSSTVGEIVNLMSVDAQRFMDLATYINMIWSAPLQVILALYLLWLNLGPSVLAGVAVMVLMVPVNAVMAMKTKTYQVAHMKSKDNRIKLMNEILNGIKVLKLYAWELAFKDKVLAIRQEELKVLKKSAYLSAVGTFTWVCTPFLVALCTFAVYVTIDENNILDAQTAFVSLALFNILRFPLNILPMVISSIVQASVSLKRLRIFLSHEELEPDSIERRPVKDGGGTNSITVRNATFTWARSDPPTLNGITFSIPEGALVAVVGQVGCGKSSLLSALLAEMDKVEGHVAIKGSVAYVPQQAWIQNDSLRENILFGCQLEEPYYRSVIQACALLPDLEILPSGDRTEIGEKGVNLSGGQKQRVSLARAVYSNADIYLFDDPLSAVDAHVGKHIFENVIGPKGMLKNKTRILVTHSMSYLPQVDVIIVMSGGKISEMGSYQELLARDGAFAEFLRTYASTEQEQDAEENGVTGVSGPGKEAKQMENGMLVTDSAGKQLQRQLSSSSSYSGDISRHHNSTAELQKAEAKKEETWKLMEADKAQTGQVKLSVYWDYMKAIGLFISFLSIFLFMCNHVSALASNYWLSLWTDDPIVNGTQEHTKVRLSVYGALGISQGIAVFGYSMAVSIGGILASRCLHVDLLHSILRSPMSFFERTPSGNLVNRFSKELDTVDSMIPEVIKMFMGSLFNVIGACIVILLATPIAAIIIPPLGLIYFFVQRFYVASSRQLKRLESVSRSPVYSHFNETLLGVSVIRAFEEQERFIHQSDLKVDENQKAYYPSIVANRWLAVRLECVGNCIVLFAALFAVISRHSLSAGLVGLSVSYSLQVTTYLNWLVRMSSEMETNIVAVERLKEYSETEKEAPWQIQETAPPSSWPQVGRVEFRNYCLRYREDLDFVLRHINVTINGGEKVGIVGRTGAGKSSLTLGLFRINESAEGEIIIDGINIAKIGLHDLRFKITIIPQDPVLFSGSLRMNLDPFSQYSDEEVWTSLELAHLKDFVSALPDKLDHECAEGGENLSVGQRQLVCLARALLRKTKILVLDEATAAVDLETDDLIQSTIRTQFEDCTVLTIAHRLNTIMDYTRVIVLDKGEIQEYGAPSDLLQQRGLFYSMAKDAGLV

For the compound `C[C@]12CC[C@@H]3c4ccc(O)cc4CC[C@H]3[C@@H]1CC[C@@H]2O[C@@H]1O[C@H](C(=O)O)[C@@H](O)[C@H](O)[C@H]1O` [E217βG, estradiol-17β-D- glucuronide], the “ATP-dependent uptake of positive control substrate” value in [1] (MRP4 vesicles, 0.25–100 μM, 0.5 minutes) is reported as “saturable uptake”.
In the case of `CCCN(CCC)S(=O)(=O)c1ccc(C(=O)O)cc1` [probenecid], the “decrease of NAC uptake by probenecid” value in [2] (OAT3, 200 μM probenecid pre-incubation 5 min, 10 min uptake, n = 3) is reported as 93.9%. Moreover, the “effect of probenecid on NAC uptake by control cells” value in data set [3] is recorded as “no difference”.
For the compound `CC(=O)N[C@@H](CS)C(=O)O` [NAC, N-acetylcysteine], the “levels in the brain” value in [4] (IP administration, ref Erickson et al., 2012) was “low levels of NAC were measurable”. For the same compound, the “log D” value in data set [5] was −5.4. The “ATP-dependent, transporter-mediated uptake of NAC vs AMP (negative control)” value in data set [6] (MRP1 vesicles, 25 μM NAC) is recorded as “No uptake; also recorded: not statistically different”; in data set [1] (MRP4 vesicles, 25 μM NAC), “No uptake; also recorded: not statistically different”. For the same compound, the “substrate status for MRP1” value in data set [6] (membrane vesicles) was “not a substrate”. The “saturation of concentration-dependent NAC uptake” value in data set [2] (HEK-OAT3, 10 min, up to 10 mM NAC) is “did not reach saturation”; in data set [10] (HEK-OAT1, 25 min, up to 10 mM NAC), “did not reach saturation”. For the same compound, the NAC uptake rate worked out at 37.7 ± 1.9 pmol/mg/min in data set [2] (setting [12]) and 4.2 ± 0.1 pmol/mg/min in data set [10] (OAT1-overexpressing cells, 25 μM NAC). Besides, the “time up to which NAC uptake is linear” value in [2] (setting [12]) is “at least 15 minutes”; in data set [10] (OAT1-overexpressing cells, 25 μM NAC, latest time point measured), not below 42.5 min. Also, in data set [2] (setting [13]), the “substrate status for OAT3” value is recorded as “substrate”. Besides, the renally eliminated entry in data set [7] is “approximately 30%”. The entries for the “apparent plasma clearance (CL/F)” value in [8] (NAC 163 mg/kg ip alone) and in data set [8] (NAC 163 mg/kg ip in combination with probenecid 150 mg/kg ip) were 18.55 ± 0.483 mL/min/kg and 11.2 ± 0.137 mL/min/kg, respectively. The “NAC brain levels at late time points” value is on record as “remained measurable” in data set [9] (NAC and probenecid group, up to last sampling time point (8 h)); “below the limit of quantificaiton; also recorded: below limit of quantification” in data set [9] (NAC only group, 6 h and 8 h time points). In data set [1] (membrane vesicles), the “substrate status for MRP4” value is on record as “not a substrate”. Besides, the “substrate status for OAT1” value in data set [10] (setting [13]) was “substrate”. Further, the “crossing of the BBB” value in [11] is “can cross the BBB”.
With `CC(=O)N[C@@H](CS)C(N)=O`, in data set [4] (IP and oral administration, ref Offen et al., 2004), the “detection in the brain” value is on record as “able to detect”.

The term log D denotes lipophilicity at a set pH, counting ionised and neutral species.

Values taken from PMC5572076 (Xenobiotica; the fate of foreign compounds in biological …, 2016).
